# Results taken from ChEMBL document CHEMBL3046117, “Synthesis of 1-(4-((E)-3-arylacryloyl) phenyl)-3,4-dibromo-1H-pyrrole-2,5-diones and screening for anti-Candida and antituberculosis activity” (2012).
# Assays:
# [1] = system: Mycobacterium tuberculosis; assay: Antimycobacterial activity against Mycobacterium tuberculosis H37Rv by MABA method; format: functional
# Candida albicans = assay: Antifungal activity against Candida albicans by dilution method; format: functional
Compound,MIC90 [1] [mg/L],MIC (Candida albicans) [mg/L]
O=C(/C=C/c1ccccc1)c1ccc(N2C(=O)C(Br)=C(Br)C2=O)cc1,500,250
O=C(/C=C/c1ccc(Cl)cc1Cl)c1ccc(N2C(=O)C(Br)=C(Br)C2=O)cc1,500,500
NYSTATIN,,100
NNC(=O)c1ccncc1 [ISONIAZID],0.2,
COc1ccc(/C=C/C(=O)c2ccc(N3C(=O)C(Br)=C(Br)C3=O)cc2)cc1[N+](=O)[O-],1000,1000
O=C(/C=C/c1ccc(Cl)cc1)c1ccc(N2C(=O)C(Br)=C(Br)C2=O)cc1,100,250
COC1=CC(=O)C[C@@H](C)[C@]12Oc1c(Cl)c(OC)cc(OC)c1C2=O [GRISEOFULVIN],,500
O=C(/C=C/c1ccccc1O)c1ccc(N2C(=O)C(Br)=C(Br)C2=O)cc1,50,100
Cc1ccc(/C=C/C(=O)c2ccc(N3C(=O)C(Br)=C(Br)C3=O)cc2)cc1,500,1000
O=C(/C=C/c1cccc([N+](=O)[O-])c1)c1ccc(N2C(=O)C(Br)=C(Br)C2=O)cc1,200,250
COc1ccc(/C=C/C(=O)c2ccc(N3C(=O)C(Br)=C(Br)C3=O)cc2)cc1OC,500,500
COc1ccc(/C=C/C(=O)c2ccc(N3C(=O)C(Br)=C(Br)C3=O)cc2)cc1,500,1000
O=C(/C=C/c1ccccc1Cl)c1ccc(N2C(=O)C(Br)=C(Br)C2=O)cc1,250,1000
O=C(/C=C/c1ccc(O)cc1)c1ccc(N2C(=O)C(Br)=C(Br)C2=O)cc1,60,150
